Source: ChEMBL document CHEMBL5352441, “Modulation of FLT3-ITD and CDK9 in acute myeloid leukaemia cells by novel proteolysis targeting chimera (PROTAC)” (2022)
Activity calls are given as the source filed them. No cut-off for these calls is given here.

Assays:
MV4-11 [1] = assay: Induction of cell cycle arrest in CRBN-deficient human MV4-11 cells assessed as accumulation of cells at S phase at 0.004 uM incubated for 16 hrs by PI staining based flow cytometry analysis (reference value: 36.91%); format: functional
MV4-11 [2] = assay: Downregulation of FLT3 gene expression in human MV4-11 cells at 0.004 to 2.5 uM incubated for 4 hrs by qRT-PCR analysis; format: functional, cell-based; details: dose 0.004-2.5 µM
MV4-11 [3] = assay: Induction of apoptosis in human MV4-11 cells assessed as activation of caspase 7 at 0.1 to 0.5 uM preincubated for 90 mins with 4-hydroxythalidomide followed by compound addition and further incubated for 16 hrs in presence of Ac-DEVD-AMC by fluorescence microplate reader analysis; format: functional, cell-based; details: dose 0.1-0.5 µM
[4] = target: T1, Protein cereblon/Cyclin-dependent kinase 9 (Homo sapiens) (UniProt P50750+Q96SW2); assay: PROTAC activity at CRBN/CDK9 in human MV4-11 cells harboring FLT3-ITD mutation assessed as induction of protein degradation incubated for 16 hrs by immunoblot analysis; format: cell-based; details: dose 0.004-2.5 µM
MV4-11 [5] = assay: Induction of cell cycle arrest in CRBN-deficient human MV4-11 cells assessed as accumulation of cells at G2/M phase at 0.5 uM incubated for 16 hrs by PI staining based flow cytometry analysis (reference value: 9.34%); format: functional
MV4-11 [6] = assay: Downregulation of MEISI gene expression in human MV4-11 cells incubated for 4 hrs by qRT-PCR analysis; format: functional, cell-based; details: dose 0.004-2.5 µM
MV4-11 [7] = assay: Downregulation of Myb gene expression in human MV4-11 cells incubated for 4 hrs by qRT-PCR analysis; format: functional, cell-based; details: dose 0.004-2.5 µM
[8] = target: CDK9/cyclin T1 (Homo sapiens) (UniProt O60563+P50750); assay: Inhibition of human CDK9/Cyclin T1 assessed as residual activity at 100 nM relative to control; format: protein-complex assay
MV4-11 [9] = assay: Antiproliferative activity against human MV4-11 cells harboring FLT3-ITD mutation assessed as cell growth inhibition incubated for 72 hrs by resazurin dye based fluorescence analysis; format: functional
MV4-11 [10] = assay: Induction of cell cycle arrest in human MV4-11 cells assessed as accumulation of cells at G1 phase at 0.1 uM incubated for 16 hrs by PI staining based flow cytometry analysis (reference value: 62.97%); format: functional
[11] = system: Receptor-type tyrosine-protein kinase FLT3 (Homo sapiens), P36888 [UNDEFINED MUTATION]; assay: Inhibition of FLT3 in human MV4-11 cells harboring FLT3-ITD mutation assessed as reduction in STAT5 phosphorylation at Y694 residue at 0.004 to 2.5 uM incubated for 16 hrs by immunoblot analysis; format: cell-based; details: dose 0.004-2.5 µM
MV4-11 [12] = assay: Induction of cell cycle arrest in CRBN-deficient human MV4-11 cells assessed as accumulation of cells at S phase at 0.1 uM incubated for 16 hrs by PI staining based flow cytometry analysis (reference value: 36.91%); format: functional
MV4-11 [13] = assay: Induction of cell cycle arrest in human MV4-11 cells assessed as accumulation of cells at G2/M phase at 2.5 uM incubated for 16 hrs by PI staining based flow cytometry analysis (reference value: 10.86%); format: functional
MV4-11 [14] = assay: Induction of apoptosis in human MV4-11 cells assessed as PARP-1 cleavage incubated for 16 hrs in presence of Ac-DEVD-AMC by fluorescence microplate reader analysis; format: functional, cell-based; details: dose 0.004-2.5 µM
MV4-11 [15] = assay: Induction of cell cycle arrest in CRBN-deficient human MV4-11 cells assessed as accumulation of cells at S phase at 2.5 uM incubated for 16 hrs by PI staining based flow cytometry analysis (reference value: 36.91%); format: functional
MV4-11 [16] = assay: Induction of cell cycle arrest in CRBN-deficient human MV4-11 cells assessed as accumulation of cells at G1 phase at 2.5 uM incubated for 16 hrs by PI staining based flow cytometry analysis (reference value: 54.05%); format: functional
[17] = target: T1, Protein cereblon/Cyclin-dependent kinase 9 (Homo sapiens); assay: PROTAC activity at CRBN/CDK9 in human MV4-11 cells at 0.1 to 0.5 uM preincubated for 90 mins with MG132 followed by compound addition and further incubated for 16 hrs by immunoblot analysis; format: cell-based; details: dose 0.1-0.5 µM
[18] = Selectivity index, ratio of GI50 for antiproliferative activity against CRBN-deficient human MV4-11 cells to GI50 for antiproliferative activity against human MV4-11 cells harboring FLT3-ITD mutation; format: functional
MV4-11 [19] = assay: Induction of cell cycle arrest in human MV4-11 cells assessed as accumulation of cells at S phase at 0.5 uM incubated for 16 hrs by PI staining based flow cytometry analysis (reference value: 26.16%); format: functional
Kasumi 1 = assay: Antiproliferative activity against human Kasumi 1 cells assessed as cell growth inhibition incubated for 72 hrs by resazurin dye based fluorescence analysis; format: functional
MV4-11 [20] = assay: Induction of cell cycle arrest in CRBN-deficient human MV4-11 cells assessed as accumulation of cells at G1 phase at 0.1 uM incubated for 16 hrs by PI staining based flow cytometry analysis (reference value: 54.05%); format: functional
MV4-11 [21] = assay: Induction of cell cycle arrest in human MV4-11 cells assessed as accumulation of cells at G1 phase at 2.5 uM incubated for 16 hrs by PI staining based flow cytometry analysis (reference value: 62.97%); format: functional
MV4-11 [22] = assay: Induction of cell cycle arrest in human MV4-11 cells assessed as accumulation of cells at subG1 phase at 0.5 uM incubated for 16 hrs by PI staining based flow cytometry analysis (reference value: 10.51%); format: functional

T1 sequence (P50750 whole entry, looked up): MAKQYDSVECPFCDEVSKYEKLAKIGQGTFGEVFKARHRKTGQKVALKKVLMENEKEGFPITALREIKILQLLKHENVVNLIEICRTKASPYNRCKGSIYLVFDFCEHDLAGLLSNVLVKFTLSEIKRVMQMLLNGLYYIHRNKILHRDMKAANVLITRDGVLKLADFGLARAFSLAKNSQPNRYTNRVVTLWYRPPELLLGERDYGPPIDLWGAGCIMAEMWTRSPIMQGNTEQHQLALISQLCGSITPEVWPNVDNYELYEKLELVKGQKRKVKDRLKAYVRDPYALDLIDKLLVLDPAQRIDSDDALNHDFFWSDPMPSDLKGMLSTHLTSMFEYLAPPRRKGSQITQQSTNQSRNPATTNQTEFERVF
T1 sequence (Q96SW2 whole entry, looked up): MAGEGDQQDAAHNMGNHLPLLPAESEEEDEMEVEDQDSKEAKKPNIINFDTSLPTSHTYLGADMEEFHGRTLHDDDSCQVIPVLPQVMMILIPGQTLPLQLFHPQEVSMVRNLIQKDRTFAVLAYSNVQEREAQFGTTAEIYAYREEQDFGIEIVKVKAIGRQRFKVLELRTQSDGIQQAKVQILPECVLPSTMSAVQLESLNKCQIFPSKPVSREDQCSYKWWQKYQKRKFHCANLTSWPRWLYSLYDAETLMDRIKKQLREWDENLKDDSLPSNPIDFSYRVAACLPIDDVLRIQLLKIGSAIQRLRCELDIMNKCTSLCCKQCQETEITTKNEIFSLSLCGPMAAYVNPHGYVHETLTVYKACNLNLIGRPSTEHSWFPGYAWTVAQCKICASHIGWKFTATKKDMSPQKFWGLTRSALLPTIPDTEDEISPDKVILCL
Chain of Receptor-type tyrosine-protein kinase FLT3 (Homo sapiens), P36888 [UNDEFINED MUTATION] (P36888 whole entry, looked up, change not shown): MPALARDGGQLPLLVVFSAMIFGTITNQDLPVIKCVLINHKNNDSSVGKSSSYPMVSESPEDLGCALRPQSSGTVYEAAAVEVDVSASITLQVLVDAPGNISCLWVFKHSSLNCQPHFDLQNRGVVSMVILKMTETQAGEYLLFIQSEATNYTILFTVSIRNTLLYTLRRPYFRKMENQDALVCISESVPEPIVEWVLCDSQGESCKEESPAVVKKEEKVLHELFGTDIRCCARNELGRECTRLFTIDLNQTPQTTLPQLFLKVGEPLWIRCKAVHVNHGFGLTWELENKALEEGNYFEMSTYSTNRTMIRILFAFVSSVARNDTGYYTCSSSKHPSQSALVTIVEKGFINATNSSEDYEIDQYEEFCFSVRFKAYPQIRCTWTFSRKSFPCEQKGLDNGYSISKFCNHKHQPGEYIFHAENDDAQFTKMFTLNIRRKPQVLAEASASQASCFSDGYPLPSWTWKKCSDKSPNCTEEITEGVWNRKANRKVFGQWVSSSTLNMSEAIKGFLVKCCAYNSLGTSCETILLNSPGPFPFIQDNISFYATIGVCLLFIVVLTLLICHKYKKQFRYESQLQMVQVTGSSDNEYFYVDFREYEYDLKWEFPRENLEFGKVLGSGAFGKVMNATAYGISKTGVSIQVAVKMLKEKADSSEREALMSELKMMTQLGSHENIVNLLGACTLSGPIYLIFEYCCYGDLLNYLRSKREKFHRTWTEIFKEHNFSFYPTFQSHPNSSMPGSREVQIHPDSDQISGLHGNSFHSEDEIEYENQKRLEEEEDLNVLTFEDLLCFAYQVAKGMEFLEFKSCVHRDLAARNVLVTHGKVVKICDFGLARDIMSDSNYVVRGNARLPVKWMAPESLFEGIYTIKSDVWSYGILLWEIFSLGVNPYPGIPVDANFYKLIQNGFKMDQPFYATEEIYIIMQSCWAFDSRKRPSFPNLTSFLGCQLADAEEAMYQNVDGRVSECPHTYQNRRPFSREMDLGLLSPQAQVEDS

## NC1CCC(Nc2nc(Nc3ccc(N4CCN(CCOCCOCCNC(=O)CNc5cccc6c5C(=O)N(C5CCC(=O)NC5=O)C6=O)CC4)cc3)c3ncn(C4CCCC4)c3n2)CC1 (stereo not drawn)
MV4-11 [1]
  Activity: 28.88%
MV4-11 [2]
  Activity: inactive
MV4-11 [3]
  Activity: inactive
[4]
  Activity: Dose-Dependent Effect
MV4-11 [5]
  Activity: 3.91%
MV4-11 [6]
  Activity: Dose-Dependent Effect
MV4-11 [7]
  Activity: Dose-Dependent Effect
[8]
  Activity: 8%
MV4-11 [9]
  GI50: 47 nM
MV4-11 [10]
  Activity: 89.61%
[11]
  inhibition: Active
MV4-11 [12]
  Activity: 6.07%
MV4-11 [13]
  Activity: 7.79%
MV4-11 [14]
  Activity: Dose-Dependent Effect
MV4-11 [15]
  Activity: 6.05%
MV4-11 [16]
  Activity: 89.4%
[17]
  Activity: inactive
[18]
  RatioGI50: 2
MV4-11 [19]
  Activity: 18.55%
Kasumi 1
  GI50: > 10000 nM
MV4-11 [20]
  Activity: 90.54%
MV4-11 [21]
  Activity: 57.33%
MV4-11 [22]
  Activity: 58.62%
